Source: US20260265262A1, “CDK2 INHIBITORS AND METHODS OF USING THE SAME” (Cedilla Therapeutics, Inc., priority 2022, published 2026)
Like-named read-outs stand apart in the source and are kept apart here.

Key:
CDK2/Cyclin E1 = CDK2/Cyclin E1 (Homo sapiens, UniProt P24941); experiment: ADP-Glo Luminescent Kinase Assay (CDK2/E1-37C); assay type: biochemical; conditions: 0.18 nM CDK2/Cyclin E1, 100 μM ATP, 1.5 μM Histone H1, 37° C., 60 min pre-incubation; read-out: ADPGLO (CDK2/E1-37C): IC50
In short: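 Human CDK2/Cyclin E1 preincubated with inhibitor 60 min at 37 °C, then reacted 90 min at 37 °C with final 0.18 nM enzyme, 100 μM ATP, 1.5 μM Histone H1 in HEPES pH 7.5 buffer. ADP formed read by ADP-Glo luminescence; IC50 from four-parameter fit.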

Kuramochi cells = experiment: IncuCyte cell proliferation assay; assay type: cell-based
In short: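 Kuramochi cells expressing mApple-H2B were treated with a 10-point, ½-log dilution series (top 20 μM). Fluorescent nuclei were counted by IncuCyte imaging at 0 and 72 h. The fold change in cell count was normalized to DMSO wells and fitted to dose-response curves to give […].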

[1] = Kuramochi cells labeled with mApple-H2B, cell count 0 to 72 hours, 20 μM top concentration, read-out: IncuCyte Kuramochi RB-WT: IC50

Row | Structure (SMILES) | IC50 (CDK2/Cyclin E1) [µM] | IC50 (Kuramochi cells; [1]) [µM] | IC50 (Kuramochi cells; read-out: IncuCyte Kuramochi RB-WT: IC50 (μM)) [µM]
1 | C[C@@H](OCC12CCC(CC1)OC2)[C@H](NC(=O)[C@@H]1CN(C(=O)c2cnn(Cc3ccc(C(F)(F)F)cc3C(=O)O)c2)CC12CN(C(=O)C1(C(F)(F)F)CC1)C2)C(=O)N1CCC(c2nccs2)CC1 [Example I-83, ((4-((S)-8-(((2S,3R)-3-((2-oxabicyclo[2.2.2]octan-4-yl)methoxy)-1-oxo-1-(4-(thiazol-2-yl)piperidin-1-yl)butan-2-yl)carbamoyl)-2-(1-(trifluoromethyl)cyclopropane-1-carbonyl)-2,6-diazaspiro[3.4]octane-6-carbonyl)-1H-pyrazol-1-yl)methyl)-5-(trifluoromethyl)benzoic acid] | < 0.5 | > 20 | 
2 | C[C@@H](OCC12CCC(CC1)OC2)[C@H](NC(=O)[C@@H]1CN(C(=O)c2cnn(Cc3ccc(C(F)(F)F)cc3)c2)CC12CN(C(=O)C1(C(F)(F)F)CC1)C2)C(=O)NS(=O)(=O)c1ccc(F)cc1 [Example I-85, (S)—N-((2S,3R)-3-((2-oxabicyclo[2.2.2]octan-4-yl)methoxy)-1-((4-fluorophenyl)sulfonamido)-1-oxobutan-2-yl)-6-(1-(4-(trifluoromethyl)benzyl)-1H-pyrazole-4-carbonyl)-2-(1-(trifluoromethyl)cyclopropane-1-carbonyl)-2,6-diazaspiro[3.4]octane-8-carboxamide] | < 0.5 | > 20 | 
3 | C[C@@H](OCC12CCC(CC1)OC2)[C@H](NC(=O)[C@@H]1CN(C(=O)c2cnn(Cc3ccc(C(F)(F)F)cc3)c2)CC12CN(C(=O)C1(C(F)(F)F)CC1)C2)C(=O)N1CCC(c2ccc(OC(C)(C)C(=O)O)c(C(F)(F)F)c2)CC1 [Example I-4] | < 0.5 | > 20 | 
4 | COc1ccc(S(=O)(=O)NC(=O)[C@@H](NC(=O)[C@@H]2CN(C(=O)c3cnn(Cc4ccccc4)c3)CC23CN(C(=O)[C@H]2CC2(C)C)C3)[C@@H](C)OCC2CCCCC2)cc1 [Example I-22] | < 0.5 | 0.5 to 5 | 
5 | COC(=O)c1ccc([C@@H](COCC23CCC(CC2)OC3)NC(=O)C2CN(C(=O)c3cnn(Cc4ccc(C#N)cc4)c3)CC23CN(C(=O)C2(C(F)(F)F)CC2)C3)cc1 (stereo partly drawn) [Example I-20] | 5 to 10 | > 20 | 
6 | C[C@@H](OCC12CCC(CC1)OC2)[C@@H](COC1CCC(c2ccc(C(=O)O)cc2)CC1)NC(=O)[C@@H]1CN(C(=O)c2cnn(Cc3ccc(C(F)(F)F)cc3)c2)CC12CN(C(=O)C1(C(F)(F)F)CC1)C2 (stereo partly drawn) [Example I-86, 4-(4-((2R,3R)-3-(2-oxabicyclo[2.2.2]octan-4-ylmethoxy)-2-((S)-6-(1-(4-(trifluoromethyl)benzyl)-1H-pyrazole-4-carbonyl)-2-(1-(trifluoromethyl)cyclopropanecarbonyl)-2,6-diazaspiro[3.4]octane-8-carboxamido)butoxy)cyclohexyl)benzoic acid] | 0.5 to 5 | > 20 | 
7 | C[C@@H](OCC12CCC(CC1)OC2)[C@H](NC(=O)[C@@H]1CN(C(=O)c2cnc(O)cn2)CC12CN(C(=O)C1CC1(C)C)C2)C(=O)N1CCC(c2ccc(C(F)(F)F)c(C(=O)O)c2)CC1 (stereo partly drawn) [Example I-90, 5-(1-(O-((2-oxabicyclo[2.2.2]octan-4-yl)methyl)-n-((s)-2-((s)-2,2-dimethylcyclopropane-1-carbonyl)-6-(5-hydroxypyrazine-2-carbonyl)-2,6-diazaspiro[3.4]octane-8-carbonyl)-L-threonyl)piperidin-4-yl)-2-(trifluoromethyl)benzoic acid] | < 0.5 | > 20 | 
8 | COC(=O)C(C)(C)Oc1ccc(C2CCN(C(=O)[C@@H](NC(=O)[C@@H]3CN(C(=O)c4cnn(Cc5ccc(C(F)(F)F)cc5)c4)CC34CN(C(=O)C3(C(F)(F)F)CC3)C4)[C@@H](C)OCC34CCC(CC3)OC4)CC2)cc1C(F)(F)F (stereo in doubt) [Example I-5] | > 10 | > 20 | 
9 | C[C@@H](OCC12CCC(CC1)OC2)[C@H](NC(=O)[C@@H]1CN(C(=O)c2cnn(Cc3ccccc3C(=O)O)c2)CC12CN(C(=O)C1(C(F)(F)F)CC1)C2)C(=O)N1CCNCC1 [Example I-109] | < 0.5 | > 20 | 
10 | C[C@@H](OCC12CCC(CC1)OC2)[C@H](NC(=O)[C@@H]1CN(C(=O)c2cnc(O)cn2)CC12CN(C(=O)C1(C(F)(F)F)CC1)C2)C(=O)N1CCC(c2ccc(C(F)(F)F)cc2C(=O)O)CC1 [Example I-1, 2-(1-(O-((2-oxabicyclo[2.2.2]octan-4-yl)methyl)-N—((S)-6-(5-hydroxypyrazine-2-carbonyl)-2-(1-(trifluoromethyl)cyclopropane-1-carbonyl)-2,6-diazaspiro[3.4]octane-8-carbonyl)-L-threonyl)piperidin-4-yl)-5-(trifluoromethyl)benzoic acid] | < 0.5 | > 20 | 
11 | C[C@@H](OCC12CCC(CC1)OC2)[C@H](NC(=O)[C@@H]1CN(C(=O)c2cnn(Cc3ccccc3C(=O)O)c2)CC12CN(C(=O)C1(C(F)(F)F)CC1)C2)C(=O)N1CCC2(CCNCC2)CC1 [Example I-60, 2-((4-((S)-8-(((2S,3R)-3-((2-oxabicyclo[2.2.2]octan-4-yl)methoxy)-1-oxo-1-(3,9-diazaspiro[5.5]undecan-3-yl)butan-2-yl)carbamoyl)-2-(1-(trifluoromethyl)cyclopropane-1-carbonyl)-2,6-diazaspiro[3.4]octane-6-carbonyl)-1H-pyrazol-1-yl)methyl)benzoic acid] | < 0.5 | 0.5 to 5 | 
12 | C[C@@H](OCC12CCC(CC1)OC2)[C@H](NC(=O)[C@@H]1CN(C(=O)c2cnn(Cc3ccccc3C(=O)OC(C)(C)C)c2)CC12CN(C(=O)C1(C(F)(F)F)CC1)C2)C(=O)N1CCN(C(=O)OC(C)(C)C)CC1 [Example I-108] | < 0.5 | 0.5 to 5 | 
13 | C[C@@H](OCC12CCC(CC1)OC2)[C@H](NC(=O)[C@@H]1CN(C(=O)c2cnn(Cc3ccc(C(F)(F)F)cc3)c2)CC12CN(C(=O)C1(C(F)(F)F)CC1)C2)C(=O)N1CCC(c2cc(F)c(C(=O)O)c(F)c2)CC1 [Example I-94] | < 0.5 | > 20 | 
14 | C[C@@H](OCC1CCCCC1)[C@H](NC(=O)[C@@H]1CN(C(=O)c2cnn(Cc3ccccc3)c2)CC12CN(C(=O)[C@H]1CC1(C)C)C2)C(=O)NCCC(=O)NS(C)(=O)=O [Example I-33, (S)-6-(1-benzyl-1H-pyrazole-4-carbonyl)-N-((2S,3R)-3-(cyclohexylmethoxy)-1-((3-(methylsulfonamido)-3-oxopropyl)amino)-1-oxobutan-2-yl)-2-((S)-2,2-dimethylcyclopropane-1-carbonyl)-2,6-diazaspiro[3.4]octane-8-carboxamide] | < 0.5 | > 20 | 
15 | CCCN1CCC2(CC1)CCN(C(=O)C(NC(=O)C1CN(C(=O)c3cnn(Cc4ccccc4C(=O)O)c3)CC13CN(C(=O)C1(C(F)(F)F)CC1)C3)C(C)OCC13CCC(CC1)OC3)CC2 (stereo not drawn) [Example I-115] | < 0.5 | > 20 | 
16 | C[C@@H](OCC1CCCCC1)[C@H](NC(=O)[C@@H]1CN(C(=O)c2cnn(Cc3ccc(C(F)(F)F)cc3)c2)CC12CN(C(=O)[C@H]1CC1(C)C)C2)C(=O)N1CCC(c2ccc(C(=O)O)cc2)CC1 [Example I-29] | < 0.5 |  | 0.5 to 5
17 | C=CCOC(=O)N1CCC2(CC1)CCN(C(=O)[C@@H](NC(=O)[C@@H]1CN(C(=O)c3cnn(Cc4ccccc4C(=O)O)c3)CC13CN(C(=O)C1(C(F)(F)F)CC1)C3)[C@@H](C)OCC13CCC(CC1)OC3)CC2 [Example I-7, 2-((4-((S)-8-(((2S,3R)-3-((2-oxabicyclo[2.2.2]octan-4-yl)methoxy)-1-(9-((allyloxy)carbonyl)-3,9-diazaspiro[5.5]undecan-3-yl)-1-oxobutan-2-yl)carbamoyl)-2-(1-(trifluoromethyl)cyclopropane-1-carbonyl)-2,6-diazaspiro[3.4]octane-6-carbonyl)-1H-pyrazol-1-yl)methyl)benzoic acid] | < 0.5 | > 20 | 
18 | COC(=O)c1ccc(N2CCN(C(=O)[C@@H](NC(=O)[C@@H]3CN(C(=O)c4cnn(Cc5ccccc5)c4)CC34CN(C(=O)[C@H]3CC3(C)C)C4)[C@@H](C)OCC3CCCCC3)CC2)cc1 [Example I-31] | < 0.5 | < 0.5 | 
19 | C[C@@H](OCC1CCCCC1)[C@H](NC(=O)[C@@H]1CN(C(=O)c2cnn(Cc3ccccc3)c2)CC12CN(C(=O)[C@H]1CC1(C)C)C2)C(=O)N1CCCC[C@H]1C(=O)O [Example I-36, (S)-1-(N—((S)-6-(1-benzyl-1H-pyrazole-4-carbonyl)-2-((S)-2,2-dimethylcyclopropane-1-carbonyl)-2,6-diazaspiro[3.4]octane-8-carbonyl)-O-(cyclohexylmethyl)-L-threonyl)piperidine-2-carboxylic acid] | < 0.5 | > 20 | 
20 | C[C@@H](OCC1CCCCC1)[C@H](NC(=O)[C@@H]1CN(C(=O)c2cnn(Cc3ccccc3)c2)CC12CN(C(=O)[C@H]1CC1(C)C)C2)C(=O)NS(C)(=O)=O [Example I-18] | < 0.5 | > 20 | 
21 | C[C@@H](OCC12CCC(CC1)OC2)[C@H](NC(=O)[C@@H]1CN(C(=O)c2cnn(Cc3ccccc3C(=O)O)c2)CC12CN(C(=O)C1(C(F)(F)F)CC1)C2)C(=O)NCCC1CCNCC1 (stereo in doubt) [Example I-102] | 0.5 to 5 | > 20 | 
